In US7879563B2, “Method of screening for a carnitine transporter agonist or antagonist and its uses” (Sanofi-Aventis Deutschland GmbH, priority 2004, dated 2011):

How the values were obtained:
Assay type in all cases: cell-based
[1] = target: T1, carnitine transporter comprising the amino acid sequence SEQ ID NO: 2 (Mus musculus, UniProt Q9D687); assay: Transport activity of the mouse kidney and intestinal carnitine transporter
T1 sequence (Q9D687 1-634): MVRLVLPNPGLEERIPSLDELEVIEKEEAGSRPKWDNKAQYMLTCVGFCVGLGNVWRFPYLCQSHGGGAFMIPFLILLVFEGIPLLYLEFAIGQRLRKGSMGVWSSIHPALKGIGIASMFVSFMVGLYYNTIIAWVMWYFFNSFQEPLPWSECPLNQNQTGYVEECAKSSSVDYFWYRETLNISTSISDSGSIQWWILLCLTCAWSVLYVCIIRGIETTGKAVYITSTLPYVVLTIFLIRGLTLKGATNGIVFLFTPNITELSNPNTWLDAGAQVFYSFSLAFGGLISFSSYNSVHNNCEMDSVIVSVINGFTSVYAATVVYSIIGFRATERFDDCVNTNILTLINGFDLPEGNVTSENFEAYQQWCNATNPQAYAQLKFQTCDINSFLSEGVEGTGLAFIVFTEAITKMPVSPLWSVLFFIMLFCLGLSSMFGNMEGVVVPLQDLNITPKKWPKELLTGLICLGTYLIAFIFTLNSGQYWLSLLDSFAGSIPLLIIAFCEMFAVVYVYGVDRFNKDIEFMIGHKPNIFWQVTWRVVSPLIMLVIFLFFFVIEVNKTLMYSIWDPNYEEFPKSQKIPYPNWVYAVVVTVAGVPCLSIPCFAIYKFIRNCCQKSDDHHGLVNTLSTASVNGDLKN

[2] = target: T2, carnitine transporter comprising the amino acid sequence SEQ ID NO: 3 (Rattus norvegicus, UniProt Q2A865, F276Y/R32K/S186P); assay: Transport activity of the rat kidney and intestinal carnitine transporter
T2 sequence (Q2A865 1-634 R32K/S186P/F276Y): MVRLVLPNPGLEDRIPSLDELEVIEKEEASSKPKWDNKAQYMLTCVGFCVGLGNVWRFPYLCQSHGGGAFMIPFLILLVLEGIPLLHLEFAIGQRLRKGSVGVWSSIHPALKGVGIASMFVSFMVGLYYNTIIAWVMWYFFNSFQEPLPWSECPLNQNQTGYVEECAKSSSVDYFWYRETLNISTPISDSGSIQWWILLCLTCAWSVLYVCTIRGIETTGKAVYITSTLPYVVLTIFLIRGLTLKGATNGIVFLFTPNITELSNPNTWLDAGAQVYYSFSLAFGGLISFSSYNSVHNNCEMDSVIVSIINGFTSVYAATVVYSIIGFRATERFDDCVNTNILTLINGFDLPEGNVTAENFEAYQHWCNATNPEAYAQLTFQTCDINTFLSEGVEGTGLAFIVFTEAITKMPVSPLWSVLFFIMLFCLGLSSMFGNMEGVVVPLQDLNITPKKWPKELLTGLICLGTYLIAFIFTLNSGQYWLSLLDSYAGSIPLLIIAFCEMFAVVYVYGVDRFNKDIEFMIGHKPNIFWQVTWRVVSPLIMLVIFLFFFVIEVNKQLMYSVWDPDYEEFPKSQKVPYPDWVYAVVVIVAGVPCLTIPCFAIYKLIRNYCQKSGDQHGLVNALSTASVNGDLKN

[3] = target: T3, carnitine transporter comprising the amino acid sequence SEQ ID NO: 1 (Homo sapiens, UniProt Q695T7); assay: Tracer flux transport measurement in Xenopus laevis oocytes injected with cRNA comprising SEQ ID NO: 4; conditions: for kinetics of transport compared with the substrate L-carnitine (FIG. 2): SEQ ID NO: 1, other substrates
T3 construct: expressed in transfected cells; host or cells: Xenopus laevis oocytes injected with cRNA
T3 sequence (Q695T7 1-634): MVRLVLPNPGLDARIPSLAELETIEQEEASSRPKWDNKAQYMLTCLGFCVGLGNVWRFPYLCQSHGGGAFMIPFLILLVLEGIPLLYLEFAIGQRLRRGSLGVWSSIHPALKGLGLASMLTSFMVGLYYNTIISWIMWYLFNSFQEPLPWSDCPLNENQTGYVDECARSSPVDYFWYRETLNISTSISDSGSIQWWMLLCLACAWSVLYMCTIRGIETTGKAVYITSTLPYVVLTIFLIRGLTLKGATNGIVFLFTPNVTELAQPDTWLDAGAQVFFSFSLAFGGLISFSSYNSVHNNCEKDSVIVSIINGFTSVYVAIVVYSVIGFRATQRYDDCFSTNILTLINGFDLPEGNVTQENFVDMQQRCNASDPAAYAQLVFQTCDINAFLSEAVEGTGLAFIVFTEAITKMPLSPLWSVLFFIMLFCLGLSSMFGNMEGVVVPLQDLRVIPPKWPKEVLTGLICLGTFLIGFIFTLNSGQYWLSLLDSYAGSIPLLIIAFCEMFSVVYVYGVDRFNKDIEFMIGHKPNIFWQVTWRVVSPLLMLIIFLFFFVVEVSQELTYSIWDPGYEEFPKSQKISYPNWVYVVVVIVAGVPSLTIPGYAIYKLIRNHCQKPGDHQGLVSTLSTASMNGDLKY
Protocol: The transport measurements of radioactively labeled compounds were executed using Xenopus laevis oocytes in the so-called “tracer flux method”, wherein the transport rate of substrates across the oocyte membrane into the cytosol is determined.
A Xenopus laevis oocyte was injected with a cRNA molecule comprising SEQ ID NO: 4.
Injected oocytes were kept in the culture medium ORi comprising gentamycin (50 mg/L) at 18° C. until the measurement of substrate uptake. Injured, acutely altered or later heavily damaged cells were discarded.
After 72 hours the oocyte was used for screening for a carnitine transporter agonist or antagonist.
Polysterene wells treated with oocyte homogenate were filled with 200 μl substrate solution. The oocytes were first washed two times with ORi solution, before use in the determination. 8 to 10 oocytes were used in a reaction mixture, in order to enable statistical evaluations. After the addition of the oocytes into the substrate solution the reaction mixture was softly mixed and incubated. The incubation was carried through at 22° C. for 1 hour. In order to stop the reaction, 1 ml of ice cold ORi was added.
The oocytes were washed four times in 15 ml ice cold ORi. Subsequently the oocytes were individually transferred into a 6 ml counter vial. The oocyte plasma membrane was disrupted by adding 100 μl […] solution. The vials were slightly agitated to disrupt the plasma membrane. The plasma membrane was completely disrupted by agitation for 30 to 45 minutes. The lysates were mixed with 2 ml of a scintillation cocktail. The radioactivity of the lysates was determined in a liquid scintillation counter comprising a correction for the luminescence and an external standard. Each vial was counted for 5 minutes.
In order to determine the substrate concentration after the dropping in of the oocytes, 2×10 μl solution were removed from the reaction mixture, 100 μl 5% SDS solution was added and evaluations with the counter were carried out. The obtained values were considered in the calculation of the transport rates.
For the determination of concentration-dependent substrate uptake serial dilutions of the investigated substrate were prepared and the radioactivity was distributed, such that in each reaction mixture between 10000 and 20000 cpm were counted in the supernatant. For the KM determination the substrate uptake was measured for 1 hour. In addition, the measurement was carried through using H2O-injected oocytes, in order to determine the background, i.e. the unspecific substrate uptake, for example mediated by diffusion or by endogenous transport proteins. The transport rates were calculated and graphically plotted against the substrate concentration and adapted mathematically according to the Michaelis-Menten equation.

C[N+](C)(C)C[C@H](O)CC(=O)[O-] [L-carnitine]
kinetics of transport compared with FIG. 2 (SEQ ID NO: 1) [1]: comparable kinetics
kinetics of transport compared with FIG. 2 (SEQ ID NO: 1) [2]: comparable kinetics

CN(CC(=O)O)C(=N)N [creatine]
transport of the substrate [1]: transport
transport of the substrate [2]: transport
transport of the substrate ([3]; SEQ ID NO: 1): transport
kinetics of transport compared with the substrate L-carnitine (FIG. 2) [3]: comparable kinetics

C[n+]1ccc(-c2ccccc2)cc1 [methylphenylpyridinium]
kinetics of transport compared with the substrate L-carnitine (FIG. 2) [3]: comparable kinetics

NC[C@H](O)c1ccc(O)c(O)c1 [noradrenaline]
kinetics of transport compared with the substrate L-carnitine (FIG. 2) [3]: comparable kinetics

NCCc1c[nH]c2ccc(O)cc12 [serotonin]
kinetics of transport compared with the substrate L-carnitine (FIG. 2) [3]: comparable kinetics
